The LD50 is the dose at which mortality reaches 50%. A high value points to a less toxic substance.

The test system of data set [1] is Trichomonas vaginalis. Nature of the data set: Minimum inhibition concentration on Trichomonas vaginalis, in vitro quantitative tube-dilution test. Type of data set: cell-based. To be noted: for Relative effectiveness Metronidazol = 1.0: MIC on Trichomonas vaginalis relative to Metronidazol = 1.0; for MIC: Trichomonas vaginalis, in vitro tube-dilution test. The protocol:
Minimum inhibition concentrations (MIC) on Trichomonas
^1 The tests were carried out in vitro using the quantitative
tubedilutiom test described by P. Klein, Bakteriologische Geundlagen der
chemotherapeutischen Laboratoriumspraxis, SpringerVerlag
BerlinCoettingen-Heidelberg, 1957.

The subject of data set [2] is Trypanosoma brucei. Put plainly: Trypanosoma brucei infection of the mouse. To be noted: for recidivation: 25 days post-observation. In kind it is in vivo, mouse (NMRI strains). The procedure:
(§1) The action against infections caused by Trypanosomas and Entamoeba histolytica can be illustrated on the mouse (NMRI strains) using methods described in Handbuch fur experimentelle Pharmakologie, Erganzungswerk 16, Erzeugung von Krankheitszustanden durch das Experiment, Part 9, pages 150 to 292, Springer-Verlag, Berlin-Goettingen-Heidelberg, 1964.
1. Trypanosoma brucei--infections of the mouse
(§2) Various dosages were investigated. The curing of the infection was determined microscopically and in a culture. There was also post-observation for 25 days after treatment was discontinued in order to establish whether there was any recidivation

The subject of data set [3] is Trichomonas. Nature of the data set: Trichomonas vaginal infection of mice. Type of data set: in vivo. To be noted: po, read-out: cure; for responders at 25 mg/kg: 5×25 mg/kg perorally; for responders at 50 mg/kg: 5×50 mg/kg perorally. The protocol:
5. Trichomonas vaginal--infection of mice Various dosages were investigated. The curing of the infection was determined microscopically and in a culture.

Data set [4] concerns Trypanosoma gambiense. Put plainly: Trypanosoma gambiense infection of mouse. Type of data set: in vivo, mouse (NMRI strains). The protocol: as §1, §2
2. Trypanosoma gambiense--infection of mouse
(§3) Same method as in the case of Trypanosoma brucei

Data set [5] has as its system Trypanosoma congolense. Nature of the data set: Trypanosoma congolense infection of mouse. In kind it is in vivo, mouse (NMRI strains). The protocol:
as §1, §2
3. Trypanosoma congolense--infection of mouse
as §3

For data set [6], the system named is Entamoeba histolytica. Nature of the data set: Entamoeba histolytica in vitro tube-dilution test. The following applies: Entamoeba histolytica PN and Q strains, read-out: minimum inhibition concentration. In kind it is cell-based. The procedure: 4. Entamoeba histolytica (tube-dilution test)
The PN and Q strains were tested.
The minimum inhibition concentrations were as follows:
The experiments were carried out in vitro using the quantitative tube-dilution test described by P. Klein, Bakteriologische Grundlagen der chemotherapeutischen Laboratoriumspraxis, Springer-Verlag, Berlin-Goettingen-Heidelberg, 1957.

Data set [7] is described as follows: LD 50 toxicity on mice, oral. The following applies: mouse, in vivo, NMRI strain, a week's observation period.

≈ marks a conversion by molar mass, not a printed value.

`CCS(=O)(=O)CCn1c([N+](=O)[O-])cnc1C` [Tinidazol, reference compound]: in data set [1], the “Relative effectiveness Metronidazol = 1.0” value was 1.0 and the MIC stood at 0.1 µg/mL (≈ 0.404 µM). In addition, the action entry in data set [2] (22×50 mg/kg perorally) is given as “no action”. Besides, in data set [3], the responders at 25 mg/kg was found to be 100%.

As for `Cc1nnc(C=Cc2ncc([N+](=O)[O-])n2C)s1` [Example 1, 2-methyl-5-[2-(1-methyl-5-nitroimidazol-2-yl)-vinyl]-1,3,4-thiadiazole], in data set [1], the “Relative effectiveness Metronidazol = 1.0” value was 5.0 and the MIC amounted to 0.02 µg/mL (≈ 0.0796 µM). Also, in data set [2] (11×50 mg/kg perorally), the acute action came to 100% and the recidivation stood at 70%. In data set [4] (11×50 mg/kg perorally), this molecule showed an acute action of 100% and a recidivation of 80%. Also, in data set [5] (11×50 mg/kg perorally), the acute action came out at 100% and the “no recidivation (so in the source)” value is 20%. Besides, the MIC in data set [6] was less than 0.01 µg/mL. Moreover, the responders at 25 mg/kg in data set [3] stood at 100%. The median lethal dose (LD50) at 168 h in data set [7] is greater than 1500 mg/kg.

On to `Cn1c([N+](=O)[O-])cnc1C=Cc1nnc(-c2ccccc2)s1` [Example 2, 2-phenyl-5-[2-(1-methyl-5-nitroimidazol-2-yl)-vinyl]-1,3,4-thiadiazole], for which the “Relative effectiveness Metronidazol = 1.0” value in data set [1] amounted to 10.0. The MIC stood at 0.01 µg/mL (≈ 0.0319 µM) in data set [1] and 0.1 µg/mL (≈ 0.319 µM) in data set [6]. The acute action result in data set [2] (11×50 mg/kg perorally), in data set [4] (11×50 mg/kg perorally) and in data set [5] (11×50 mg/kg perorally) was “no action” throughout. Moreover, the responders at 50 mg/kg in data set [3] worked out at 10%.

For `Cc1ccc(C(=O)Nc2ccc(S(=O)(=O)O)c3cc(S(=O)(=O)O)cc(S(=O)(=O)O)c23)cc1NC(=O)c1cccc(NC(=O)Nc2cccc(C(=O)Nc3cc(C(=O)Nc4ccc(S(=O)(=O)O)c5cc(S(=O)(=O)O)cc(S(=O)(=O)O)c45)ccc3C)c2)c1` [Suramin, reference compound], the acute action in data set [2] (7×50 mg/kg intraperitoneally) is on record as 80%; in data set [4] (7×50 mg/kg intraperitoneally), 50%; in data set [5] (7×50 mg/kg intraperitoneally), 70%. Further, the recidivation entry in data set [2] (7×50 mg/kg intraperitoneally), in data set [4] (7×50 kg/mg intraperitoneally) and in data set [5] (7×50 mg/kg intraperitoneally) was “no recidivation” in each case.

Take `Cn1c([N+](=O)[O-])cnc1C=Cc1nncs1` [Example 6, 2-[2-(1-methyl-5-nitroimidazol-2-yl)-vinyl]-1,3,4-thiadiazole]: the “Relative effectiveness Metronidazol = 1.0” value in data set [1] is listed as greater than 10.0. In addition, the MIC in data set [1] and in data set [6] was less than 0.01 µg/mL throughout. Besides, the acute action entry in data set [2] (11×50 mg/kg perorally), in data set [4] (11×50 mg/kg perorally) and in data set [5] (11×50 mg/kg perorally) was “no action” in each case. Further, in data set [3], the responders at 50 mg/kg was 50%.

Take `CCc1nnc(C(C)=Cc2ncc([N+](=O)[O-])n2C)s1` [Example 10, 2-ethyl-5-[1-methyl-2-(1-methyl-5-nitroimidazol-2-yl)-vinyl]-1,3,4-thiadiazole]: the “Relative effectiveness Metronidazol = 1.0” value in data set [1] is reported as greater than 10.0. In addition, the MIC in data set [1] and in data set [6] was less than 0.01 µg/mL throughout. The acute action in data set [2] (11×50 mg/kg perorally), in data set [4] (11×50 mg/kg perorally) and in data set [5] (11×50 mg/kg perorally) was 100% in each case. For the same molecule, the figures for the recidivation entry in data set [2] (11×50 mg/kg perorally), in data set [4] (11×50 mg/kg perorally) and in data set [5] (11×50 mg/kg perorally) were “no recidivation”, 60% and “no recidication”, respectively. Moreover, the responders at 25 mg/kg in data set [3] was 100%. The LD50 at 168 h in data set [7] was greater than 1500 mg/kg.

Regarding `Cn1c([N+](=O)[O-])cnc1C=Cc1nnc(-c2ccncc2)s1` [Example 5, 2-(4-pyridyl)-5-[2-(1-methyl-5-nitroimidazol-2-yl)-vinyl]-1,3,4-thiadiazole], in data set [1], the “Relative effectiveness Metronidazol = 1.0” value worked out at 10.0. Moreover, the MIC in data set [1] is 0.01 µg/mL (≈ 0.0318 µM); in data set [6], less than 0.01 µg/mL. Further, the acute action entry in data set [2] (11×50 mg/kg perorally), in data set [4] (11×50 mg/kg perorally) and in data set [5] (11×50 mg/kg perorally) was “no action” throughout. Also, the responders at 25 mg/kg in data set [3] worked out at 100%.

With `CCc1nnc(C=Cc2ncc([N+](=O)[O-])n2C)s1` [Example 7, 2-ethyl-5-[2-(1-methyl-5-nitroimidazol-2-yl)-vinyl]-1,3,4-thiadiazole], the “Relative effectiveness Metronidazol = 1.0” value in data set [1] was greater than 10.0. Moreover, the MIC in data set [1] and in data set [6] was less than 0.01 µg/mL in each case. Also, the acute action is reported as 100% in data set [2] (11×50 mg/kg (route not given)), “no action” in data set [4] (11×50 mg/kg perorally) and “no action” in data set [5] (11×50 mg/kg perorally). This molecule had a recidivation in data set [2] (11×50 mg/kg (route not given)) of 30%. For the same molecule, in data set [3], the responders at 50 mg/kg amounted to 100%. Moreover, the LD50 at 168 h in data set [7] was greater than 1500 mg/kg.

For `Cc1ncc([N+](=O)[O-])n1CCO` [Metronidazol, reference compound], in data set [1], the “Relative effectiveness Metronidazol = 1.0” value is given as 1.0 and the MIC was determined as 0.1 µg/mL (≈ 0.584 µM). Moreover, in data set [2] (11×50 mg/kg perorally), the acute action entry is recorded as “no action”. Moreover, the MIC in data set [6] worked out at 0.1 µg/mL (≈ 0.584 µM). For the same molecule, the responders at 25 mg/kg in data set [3] is 100%.

The values are drawn from patent US4218460A, “Nitroimidazoles” (BASF Aktiengesellschaft, priority 1978, dated 1980).
